# Literature values as cited in patent publication US20130142872A1, “EMP2: Ethyl-Methyl, di Methyl, tri Methyl Pyruvate Acid Esters: A Tool for Regulating HbA1c and a Riboswitch Activator” (priority 2011, published 2013).
# Legend:
# [1] = clinically prescribed / clinically relevant doses
# [2] = wide variety of preclinical models of critical illnesses
# [3] = after coronary ischemia and reperfusion
# B-islet pancreatic cell = conditions: as compared to its glucose control
# [4] = test system: primary astrocyte cultures; conditions: 10 mM extracellular NAD(+) after MNNG exposure
# [5] = test system: Cultured mouse astrocytes; conditions: for cell death / translocation of the apoptosis-inducing factor from mitochondria to nuclei: after PARP-1 activation
# THP-1 monocytic cells = conditions: PMA-stimulated THP-1 cells
# [6] = test system: Mouse neuron and astrocyte cultures; conditions: for NAD(+) depletion: PARP1 activation by MNNG or H(2)O(2); for poly(ADP-ribose) accumulation: during MNNG exposure, immunostaining; for cell death: hydrogen peroxide, NMDA or MNNG exposure
molecule,measurement,setting,value
"CCOC(=O)C(C)=O [Ethyl pyruvate, ethyl pyruvate]",safety in human volunteers,[1],safe
same,survival and organ dysfunction,[2],improve survival and ameliorate organ dysfunction
same,cardiac function,[3],improve cardiac function
COC(=O)C(C)=O [Methyl pyruvate],increase in insulin production,B-islet pancreatic cell,six-fold
same,safety in human volunteers,[1],safe
NC(=O)c1ccc[n+]([C@@H]2O[C@H](COP(=O)([O-])OP(=O)(O)OC[C@H]3O[C@@H](n4cnc5c(N)ncnc54)[C@H](O)[C@@H]3O)[C@@H](O)[C@H]2O)c1 [NAD(+)],cell death,[4],prevented
same,glycolytic capacity,[4],completely restored
same,mitochondrial membrane potential,[5]; NAD(+) restored to near-normal levels after PARP-1 activation,enabled the recovery
same,cell death,[5],blocked
same,translocation of the apoptosis-inducing factor from mitochondria to nuclei,[5],blocked
"CCCCC/C=C/C=C1/C(=O)C=CC1C/C=C\CCCC(=O)O (stereo not drawn) [PGJ2, 15-deoxy-Delta(12, 14)-PGJ2]","IL-1, IL-6 and TNFalpha (pro-inflammatory cytokine) secretion",THP-1 monocytic cells,inhibitory effect
same,IL-1Ra production,THP-1 monocytic cells,increasing
NC(=O)c1ccccc1 [benzamide],NAD(+) depletion,[6],prevented
same,poly(ADP-ribose) accumulation,[6],decrease
same,cell death,[6],markedly reduced
O=C(OC[C@H]1O[C@@H](OC(=O)c2cc(O)c(O)c(OC(=O)c3cc(O)c(O)c(O)c3)c2)[C@H](OC(=O)c2cc(O)c(O)c(OC(=O)c3cc(O)c(O)c(O)c3)c2)[C@@H](OC(=O)c2cc(O)c(O)c(OC(=O)c3cc(O)c(O)c(O)c3)c2)[C@@H]1OC(=O)c1cc(O)c(O)c(OC(=O)c2cc(O)c(O)c(O)c2)c1)c1cc(O)c(O)c(OC(=O)c2cc(O)c(O)c(O)c2)c1 [gallotannin],NAD(+) depletion,[6],prevented
same,poly(ADP-ribose) accumulation,[6],increase
same,cell death,[6],equally reduced
cyclosporin A,cell death,[5],blocked
same,translocation of the apoptosis-inducing factor from mitochondria to nuclei,[5],blocked
nobotanin B,cell death,[6],equally reduced
